Experimental findings from ChEMBL document CHEMBL4265868, “N-alkanol-N-cyclohexanol amine aryl esters: Multidrug resistance (MDR) reversing agents with high potency and efficacy” (Eur J Med Chem, 2017) are described below.

Each structure is given as a SMILES string. Calls of active or inactive are those of the source. No cut-off for these calls is given here.

Data set [1] is described as follows: Stability in PBS buffer assessed as drug degradation incubated for 30 to 120 mins by LC-MS/MS method. The class given is physicochemical. The note with it: read-out: Drug degradation.
A short description of data set [2]: Stability in presence of bovine serum and human K562/DOX cells assessed as drug degradation incubated for 30 to 120 mins by LC-MS/MS method. The note with it: K562/DOX cells with bovine serum, read-out: Drug degradation. The class given is ADME.
Data set [3] can be described thus: Half life in human plasma by LC-MS/MS method. The class given is ADME, cell-free.
The species entered for data set [4] is Homo sapiens.
Description: Inhibition of P-gp in human K562/DOX cells assessed as drug level causing 50% increase in nuclear pirarubicin concentration incubated for 30 mins by spectroflurometry
The test system of data set [5] is K562. Kind of data set: Inhibition of P-gp in human K562/DOX cells assessed as increase in rhodamine-123 […] in human K562 cells at 1 uM incubated for 10 mins hrs by flow cytometry relative to untreated control. The class given is cell-based.
Data set [6] is filed under the species Homo sapiens. As to the kind of experiment: Inhibition of P-gp in human K562/DOX cells assessed as potentiation of doxorubicin-induced cytotoxicity by measuring reduction in doxorubicin IC50 at 1 uM incubated for 72 hrs by MTT assay relative to control. The class given is cell-based.
Data set [7] relates to K562. Kind of data set: Toxicity in human K562 cells assessed as reduction in cell viability at 0.1 to 3 uM incubated for 72 hrs by MTT assay. The class given is cell-based. To be noted: k562, 72 h.
A short description of data set [8]: Toxicity in human K562/Dox cells assessed as reduction in cell viability at 0.1 to 3 uM incubated for 72 hrs by MTT assay. The class given is cell-based.
Data set [9] deals with K562. Kind of data set: Potentiation of doxorubicin-induced cytotoxicity in human K562 cells assessed as reduction in cell viability at 0.1 to 3 uM incubated for 72 hrs by MTT assay. The class given is cell-based. To be noted: k562, 72 h.
The subject of data set [10] is K562. As to the kind of experiment: Effect on rhodamine-123 efflux in human K562 cells at 1 uM incubated for 10 mins hrs by flow cytometry. The class given is ADME, cell-based. To be noted: k562, 10 min.
Data set [11] is filed under the species Homo sapiens. Kind of data set: Inhibition of P-gp in human K562/DOX cells assessed as potentiation of doxorubicin-induced cytotoxicity by measuring reduction in doxorubicin IC50 at 0.1 uM incubated for 72 hrs by MTT assay relative to control. The class given is cell-based.
For data set [12], the species on record is Homo sapiens. As to the kind of experiment: Inhibition of P-gp in human K562/DOX cells assessed as potentiation of doxorubicin-induced cytotoxicity by measuring reduction in doxorubicin IC50 at 3 uM incubated for 72 hrs by MTT assay relative to control. The class given is cell-based.
Data set [13] can be described thus: Stability in human plasma assessed as parent compound remaining incubated for 120 mins by LC-MS/MS method. The class given is ADME, cell-free. To be noted: read-out: Stability.

Take `COc1cc(/C=C/C(=O)OCCCCCN(C)[C@H]2CC[C@H](OC(=O)c3cc(OC)c(OC)c(OC)c3)CC2)cc(OC)c1OC`: the degraded in [1] was < 5%. Also, the metabolised in [2] is < 5%. Further, the half-life in data set [3] is ≥ 4 h. This molecule also displayed an I0.5 in the data set listed under Homo sapiens [4] of 0.1 µM.
With `COc1cc2c(cc1OC)CN(CCc1ccc(NC(=O)c3cc(OC)c(OC)cc3NC(=O)c3cnc4ccccc4c3)cc1)CC2`, the inhibition entry in the data set on K562 [5] is “Active”. Further, the Ratio IC50 in the data set filed under Homo sapiens [6] amounted to 29.7.
As for `COc1cc(/C=C/C(=O)O[C@H]2CC[C@@H](N(C)CCCCOC(=O)c3cc(OC)c(OC)c(OC)c3)CC2)cc(OC)c1OC`, the fold change (FC) in the data set on K562 [5] is 10 to 80. For the same molecule, the Activity entry (in the data set on K562 [7]; in data set [8]; in the data set on K562 [9]; with K562 [10]) was “Non-Toxic” each time. The Ratio IC50 in the data set listed under Homo sapiens [6] was determined as 4.6; in the data set listed under Homo sapiens [11], 2.8; in the data set filed under Homo sapiens [12] it was 34.9. Also, the degraded in data set [1] was < 5%. Moreover, the metabolised in data set [2] was < 5%. Besides, the half-life in [3] is ≥ 4 h. In the data set filed under Homo sapiens [4], this molecule yielded an I0.5 of 0.29 µM.
As for `CCOC(=O)C(C)c1cccc(C(=O)c2ccccc2)c1` (stereo not given), in data set [3], the half-life was < 2 h.
Consider `COc1cc(/C=C/C(=O)O[C@H]2CC[C@@H](N(C)CCCCCOC(=O)c3cc(OC)c(OC)c(OC)c3)CC2)cc(OC)c1OC`, for which, in the data set with K562 [5], the fold change (FC) lay in the range of 10 to 80. Also, the Activity result (with K562 [7]; in data set [8]; with K562 [9]; in the data set on K562 [10]) was “Non-Toxic” each time. The Ratio IC50 in the data set filed under Homo sapiens [6] was 5.5; in the data set filed under Homo sapiens [11], 1.6; in the data set filed under Homo sapiens [12] it was 14.7. For the same molecule, the degraded in [1] is < 5%. The metabolised in data set [2] was < 5%. In addition, in data set [3], the half-life was ≥ 4 h. In the data set listed under Homo sapiens [4], this molecule came in with an I0.5 of 0.09 µM.
With `COc1cc(/C=C/C(=O)O[C@H]2CC[C@H](N(C)CCCCOC(=O)c3cc(OC)c(OC)c(OC)c3)CC2)cc(OC)c1OC`, the fold change (FC) in the data set with K562 [5] was 60. Besides, the Activity entry (in the data set on K562 [7]; in data set [8]; with K562 [9]; in the data set with K562 [10]) was “Non-Toxic” throughout. The Ratio IC50 in the data set filed under Homo sapiens [6] amounted to 12.9; in the data set listed under Homo sapiens [11] it was 3.3; in the data set listed under Homo sapiens [12], 50. In data set [1], the degraded was < 5%. For the same molecule, the metabolised in data set [2] is < 5%. In data set [3], the half-life was ≤ 2 h. The same molecule came in with an I0.5 in the data set filed under Homo sapiens [4] of 0.06 µM.
Turning to `COc1cc(/C=C/C(=O)OCCCCN(C)[C@H]2CC[C@@H](OC(=O)c3cc(OC)c(OC)c(OC)c3)CC2)cc(OC)c1OC`, the degraded in data set [1] was < 5%. Further, the metabolised in [2] is < 5%. Besides, the half-life in [3] is ≥ 4 h. The I0.5 in the data set listed under Homo sapiens [4] was 0.35 µM.
Consider `COc1cc(/C=C/C(=O)O[C@H]2CC[C@@H](N(C)CCCOC(=O)c3cc(OC)c(OC)c(OC)c3)CC2)cc(OC)c1OC`, for which the degraded in data set [1] was < 5%. In addition, the metabolised in data set [2] was < 5%. In data set [3], the half-life was ≥ 4 h. Further, the I0.5 in the data set listed under Homo sapiens [4] is 0.47 µM.
Take `COc1cc(/C=C/C(=O)OCCCCN(C)[C@H]2CC[C@H](OC(=O)c3cc(OC)c(OC)c(OC)c3)CC2)cc(OC)c1OC`: the remaining at 2 h in data set [13] was 50%. Further, the degraded in data set [1] is < 5%. Also, the metabolised in data set [2] is < 5%. Moreover, the half-life in data set [3] lay in the range of 2 to 4 h. This molecule also gave an I0.5 in the data set filed under Homo sapiens [4] of 0.08 µM.
Turning to `COc1cc(/C=C/C(=O)OCCCN(C)[C@H]2CC[C@H](OC(=O)c3cc(OC)c(OC)c(OC)c3)CC2)cc(OC)c1OC`, the degraded in [1] was < 5%. Further, the metabolised in [2] was < 5%. For the same molecule, in data set [3], the half-life was ≤ 2 h. The molecule further had an I0.5 in the data set listed under Homo sapiens [4] of 0.08 µM.
`COc1cc(/C=C/C(=O)O[C@H]2CC[C@H](N(C)CCCOC(=O)c3cc(OC)c(OC)c(OC)c3)CC2)cc(OC)c1OC`: the degraded in data set [1] was < 5%. The metabolised in [2] is < 5%. The half-life in data set [3] was ≤ 1 h. Besides, in the data set filed under Homo sapiens [4], the I0.5 is 0.07 µM.
For `COc1cc(/C=C/C(=O)OCCCN(C)[C@H]2CC[C@@H](OC(=O)c3cc(OC)c(OC)c(OC)c3)CC2)cc(OC)c1OC`, the remaining at 2 h in data set [13] amounted to 75%. In addition, the degraded in [1] is < 5%. For the same molecule, the metabolised in [2] is < 5%. Besides, the half-life in data set [3] was in the range of 2 to 4 h. Further, the I0.5 in the data set filed under Homo sapiens [4] is 0.25 µM.
For the molecule `COc1cc(/C=C/C(=O)O[C@H]2CC[C@H](N(C)CCCCCOC(=O)c3cc(OC)c(OC)c(OC)c3)CC2)cc(OC)c1OC`, the fold change (FC) in the data set on K562 [5] was 80. Besides, the Activity entry (in the data set with K562 [7]; in data set [8]; in the data set on K562 [9]; with K562 [10]) was “Non-Toxic” in each case. In addition, the Ratio IC50 in the data set filed under Homo sapiens [6] was 32.8; in the data set listed under Homo sapiens [11] it was 2.3; in the data set listed under Homo sapiens [12] it was 57.9. Besides, in data set [1], the degraded was < 5%. In addition, the metabolised in data set [2] is < 5%. In addition, the half-life in data set [3] is ≥ 4 h. In the data set filed under Homo sapiens [4], this molecule showed an I0.5 of 0.13 µM.
For `COc1cc(/C=C/C(=O)OCCCCCN(C)[C@H]2CC[C@@H](OC(=O)c3cc(OC)c(OC)c(OC)c3)CC2)cc(OC)c1OC`, in data set [1], the degraded was < 5%. The metabolised in data set [2] is < 5%. The half-life in data set [3] is ≥ 4 h. This molecule also returned an I0.5 in the data set listed under Homo sapiens [4] of 0.51 µM.
